# “Also recorded” adds a separate entry of the source.
# What was measured:
# [1] = Human study of 2 hydroxy estrone eicosenoate (Example 8); type: in vivo; settings: humans, oral capsule, 0.75 or 0.375 micromoles/kg
# Procedure: In this random, double-blind, placebo controlled study, subjects are selected to one of three groups and take a capsule orally every morning containing one of the following: a) sunflower oil (placebo), b) 2 hydroxy estrone eicosenoate dissolved in sunflower oil at a dose of 0.75 micromoles/kg, or c) 2 hydroxy estrone eicosenoate dissolved in sunflower oil at a dose of 0.375 micromoles/kg. […]
# Different tests are performed at least five different times during each study, namely at the screening of potential participants, at the beginning of the study, weekly during the trials, at the end of the first 4 week period and at the end of the second 4 week treatment period. • 1) SCREENING: Subjects are screened to exclude hypothyroidism, pregnancy, and heart disease. […] Subjects selected to participate in the studies have the following initial measurements: WEIGHT, WAIST to HIP RATIO, HEIGHT, BMI (calculated), BODY FAT % & TOTAL BODY FAT (via bioelectrical impedance method). […]
# Ad libitum diets are followed, and food intake and appetite are assessed daily by the patient with an appropriate questionnaire and booklet. […]
# [2] = Rat study of 2 hydroxyestrone eicosenoate (Example 9); type: in vivo, Osborne Mendle rats; settings: rats, oral gavage 21 days, 10, 5, 3.33 or 2.5 micromoles/kg
# Procedure: Osborne Mendle rats are selected as the study subjects due to their propensity to gain fat to when fed a high fat diet. An initial measurement of body weight is performed on each rat.
# The rats are placed individually in appropriate cages and allowed an ad libitum diet of standard rat chow and water for a 10-day period. During this 10-day period the rats are gavaged daily with 0.1 cc volume of sunflower oil to allow them to become comfortable with being handled and receiving the gavage tube (it takes about 10 days for this acclimation to occur, and is important so that the animals are not stressed by the gavage).
# Daily measurements include the following: • 1. Weight • 2. Weight of food consumed • 3. Spillage • 4. Water consumed, both volume and weight
# The rats remain confined and are denied out-of-cage activity or exercise for the duration of the experiment other than normal daily activity confined to the cage. This initial 10 day period establishes a pattern and average of weight gain, to acclimate the animals to the gavage procedure, and determine the average food and water consumption for each rat. […]
# At the end of the study, rats are anesthetized then sacrificed via guillotine. […] Weight of the uterus is determined. […]
# human T47D breast cells = settings: ER-CALUX; cited from earlier work
# [3] = tested on: MCF-7 human breast cancer cell line; assay: MCF-7 human breast cancer cell line test; type: cell-based
# Source text: The practical use of any compound given to humans for the treatment of obesity require, of course, that the compound not only be effective, but able to pass the FDA requirements and be approved as a drug suitable for humans. […] One test used to determine reactivity with human breast cancer cells is the “MCF-7 human breast cancer cell line test”. The lower the concentration of drug required to produce agonist activity, the more potential there is for problems with cancer causing &/or promotion in humans A comfortable level in the pharmaceutical industry would be a reactivity in the micromolar range. In the case of oleyl estrone, agonist activity begins at […]; with estrone eicosenoate, agonist activity begins at a ten times greater concentration of 1.0 nanomolar. This low concentration of agonist activity mitigates the possibility that these compounds would gain FDA approval for either drug.
# [4] = cited from earlier work
# [5] = Rabbit 10-day oral study: body weight and food consumed (Example 1)
# Procedure: During the first 3 weeks, rabbits were only weighed and allowed to eat. On the fourth week, all rabbits were given 0.05 cc dose of peanut oil.
# Five New Zealand white rabbits were obtained and caged in their natural environment (outside) and fed a cafeteria, ad libitum diet of rabbit chow. […] The appropriate weights of OE or EE were diluted in peanut oil to provide concentrations as follows: 1) OE, 2 mg/0.05 cc; 2) EE, 1 mg/0.05 cc; 3) 0.33 mg/0.05 cc; 4) EE, 0.1mg/0.05 cc, 5) EE, 0.03 mg/0.05 cc
# For the initial three weeks, the rabbits were given no medicine or oil. Body weight and food consumed were measured daily; establishing a daily average for food consumed and weight change.
# Rabbits received the assigned dose for 10 consecutive days. Rabbit weight (kg) and food eaten (grams) were determined daily.
# [6] = Stability of the compound
structure (smiles),measurement,setting,value
CCCCCCCC/C=C\CCCCCCCCCC(=O)Oc1cc2c(cc1O)[C@H]1CC[C@]3(C)C(=O)CC[C@H]3[C@@H]1CC2 [2-hydroxy estrone eicosenoate],appetite,[1],reduces appetite
same,"weight loss, loss of body fat, and/or decrease of body fat%",[1],produces weight loss
same,body weight &/or body fat,[2],reduction of body weight &/or body fat
same,food consumption,[2],reduction in food consumption
C[C@]12CC[C@@H]3c4cc(O)c(O)cc4CC[C@H]3[C@@H]1CCC2=O [2 hydroxy estrone],times less active than estrone,human T47D breast cells,"10,000 times"
"CCCCCCCC/C=C\CCCCCCCC(=O)Oc1ccc2c(c1)CC[C@@H]1[C@@H]2CC[C@]2(C)C(=O)CC[C@@H]12 [OE, Oleoyl-estrone, reference compound]",concentration at which agonist activity begins,[3]; MCF-7 human breast cancer cells,0.9 nM
same,lipid reserves,"[4]; Zucker lean rats, one study",lost virtually all their lipid reserves
same,weight loss,"[4]; variety of rats, i.v. or oral, published articles",rapid and sustained weight loss
same,FINAL WT.,"[5]; OE 2 mg/d oral in peanut oil, 10 days, one rabbit, initial wt 3.70 kg",3.60 kg
same,WT. Δ w/ Rx 10 days,"[5]; OE 2 mg/d oral, 10 days, pre-Rx 10 day avg. +0.121, control +0.14",−0.10 kg
same,FOOD/DAY AVG. w/ Rx,"[5]; OE 2 mg/d oral, 10 days, pre-Rx avg 160.55",93.8 grams
same,"side effect, behaviour","[5]; OE 2 mg/d oral, after one week of therapy, rabbit","very agitated, mean and aggressive; also recorded: irritability and aggressive behavior"
"CCCCCCCC/C=C\CCCCCCCCCC(=O)Oc1cc2c(cc1Br)[C@H]1CC[C@]3(C)C(=O)CC[C@H]3[C@@H]1CC2 (relative stereo) [bromo compound, 2-bromoestrone ester of cis-11-eicosenoic acid]",reactivity in MCF-7 test,[3]; compared with oleoyl estrone,only as reactive as oleoyl estrone
same,stability,[6],stable
CCCCCCCCCCCCCCCCCC(=O)Oc1ccc2c(c1)CCC1C2CCC2(C)C(=O)CCC12 (stereo not drawn) [stearoyl estrone],efficacy compared with oleoyl estrone,"[4]; Life Sci, 1998: 62 (15): 1349-59",less effective

# Reference: US20100119595A1, “Monounsaturated fatty acids and perhydrocyclopentanophenanthrene nucleus combination molecules, and their precursors, and the use of all of these as weight-loss agents” (priority 2001, published 2010)
